Test results: PMC11490992 (Microbial Cell Factories, 2024)
Converted amounts (≈) assume the structure as drawn.

Target: α-glucosidase
Assay: in vitro α-glucosidase inhibition assay, triplicate, serial dilutions
Type: biochemical

IC50 (μg/mL)^a: 86.21 µg/mL (≈ 384 µM)
Structure (SMILES): CC(C)=CCc1ccc2c(CC#N)c[nH]c2c1 [compound 2, 3-cyanomethyl-6-prenylindole]
